According to ChEMBL document CHEMBL5647694, “Novel orally bioavailable EZH1/2 dual inhibitors with greater antitumor efficacy than an EZH2 selective inhibitor” (Cancer Sci, 2017):
Activity calls are given as the source filed them. No cut-off for these calls is given here.

Key:
KARPAS-422 [1] = experiment: Antitumor activity against human KARPAS-422 cells xenografted in FOX CHASE SCID C.B.17/Icr-scid/scid Jc1 mouse assessed as inhibition of tumor growth administered orally BID for 16 days; assay type: functional; conditions: dose lower 40.0 mg/kg, dose upper […], route po, time 16.0 day
Mus musculus = experiment: In vivo inhibition of EZH1/2 in FOX CHASE SCID C.B.17/Icr-scid/scid Jc1 mouse xenografted with human KARPAS-422 cells assessed as decrease in H3K27me3 level in tumor at 40 to 160 mg/kg, po BID for 16 days and measured 1 day after cessation of drug dosing; assay type: functional, organism-based; conditions: dose lower 40.0 mg/kg, dose upper […], time 16.0 day
[2] = Cmax in BALB/c mouse at 40 mg/kg administered as single dose; assay type: ADME, organism-based; conditions: in vivo, route po
[3] = AUC (0 to 24 hrs) in BALB/c mouse at 40 mg/kg administered as single dose; assay type: ADME, organism-based; conditions: in vivo, route po
KARPAS-422 [4] = experiment: Antitumor activity against human KARPAS-422 cells xenografted in FOX CHASE SCID C.B.17/Icr-scid/scid Jc1 mouse assessed as inhibition of tumor growth at 160 mg/kg, po BID for 16 days; assay type: functional, organism-based; conditions: time 16.0 day
G-401 = experiment: Antitumor activity against human G-401 cells xenografted in female CAnN.Cg-Foxn1nu/CrlCrljFoxn1nu/Foxn1nu mouse assessed as suppression of tumor growth at 50 mg/kg, po qd for 12 days; assay type: functional, organism-based; conditions: time 12.0 day
NCI-N87 [5] = experiment: Antitumor activity against human NCI-N87 cells xenografted in female CAnN.Cg-Foxn1nu/CrlCrljFoxn1nu/Foxn1nu mouse assessed as tumor regression at 50 mg/kg, po qd for 28 days; assay type: functional, organism-based; conditions: time 28.0 day
NCI-N87 [6] = experiment: Antitumor activity against human NCI-N87 cells xenografted in female CAnN.Cg-Foxn1nu/CrlCrljFoxn1nu/Foxn1nu mouse assessed as tumor regression at 50 mg/kg, po qd for 28 days and measured for 40 days after drug dosing cessation; assay type: functional, organism-based; conditions: time 28.0 day
MV4-11 = experiment: Antiproliferative activity against human MV4-11 cells assessed as inhibition of cell growth; assay type: functional, cell-based
RS4-11 = experiment: Antiproliferative activity against human RS4-11 cells assessed as inhibition of cell growth; assay type: functional, cell-based

Structure (SMILES): CCN1CCN(c2ccc(-c3cc(C(=O)NCc4c(C)cc(C)[nH]c4=O)c(C)c4c3O[C@](C)(CN3CCOCC3)O4)cn2)CC1
- Activity (KARPAS-422 [1]): Dose-Dependent Effect
- inhibition (Mus musculus): Active
- Cmax [2]: 6 µM
- AUC(0-t) [3]: 45 µM·h
- Activity (KARPAS-422 [4]): Active

Structure (SMILES): Cc1cc(C)c(CNC(=O)c2cc(Br)c3c(c2C)OC(C)(C2CCC(N(C)C)CC2)O3)c(=O)[nH]1 (stereo not given)
- Activity (G-401): Active
- Activity (NCI-N87 [5]): inactive
- Activity (NCI-N87 [6]): Active

Structure (SMILES): CCCc1cc(C)[nH]c(=O)c1CNC(=O)c1cc(-c2ccc(N3CCN(C(C)C)CC3)nc2)cc2c1cnn2C(C)C
- EC50 (MV4-11): 0.525 µM
- EC50 (RS4-11): 1.96 µM
